Measured values reported in article PMC9468151, “Identification of a binding site on soluble RANKL that can be targeted to inhibit soluble RANK-RANKL interactions and treat osteoporosis” (Nature Communications, 2022).
pKd: −log10 of the molar value. “And” between values parts separate entries of the source, which are not always exact repeats. Equal values may be shown once.

What was measured:
sRANKL trimerization = target: T1, sRANKL trimerization (Rattus norvegicus, UniProt Q9ESE2, D175N); assay: Cross-link assay of sRANKL trimerization; type: biochemical
T1 construct: (1) sRANKL (rat 159-318 aa); His6-sumo (N, cleaved yes); made in house; host or cells: Escherichia coli BL21 (DE3)
From the text: the effect of S3-15 on RANKL self-trimerization. […]
control), S3 and S3-15 -treated sRANKL samples. The sRANKL dimer and monomer […]
trimerization process in vitro. […]
line 18 and, Figure S4L of the manuscript. […]
convinced that our sRANKL selective inhibitors does attenuate RANKL-RANK interaction without affect RANKL trimerization.”.
3. Does S3-15 affect the binding of sRANKL and mRANKL to OPG, an important
Response: To answer this question, we have performed a number of experiments. The pull-down assay was conducted to explore the effects of S3-15 on sRANKL and OPG […]
sRANKL to OPG at high concentration (10 and 1 μM) but not low concentration (0.3 μM). Three more experiments on mRANKLs have conducted to study if S3-15 affects the binding of mRANKL to OPG. Two of the experiments are on human and mouse mRANKL expressed in 293T cell, the other is on the mRANKL expressed in MC3T3-E1 osteogenic precursor cells. […]
affect the binding of mRANKL to OPG at concentration of 1 μM. […]
been documented in the page 11 at line 21 and Figure S4M-S4P of the manuscript.
Here is the paragraph we have added to the manuscript: […]

[1] = Pharmacokinetic studies in rat; type: in vivo; parameters: unit not given here
OVX rats = assay: Osteoporosis therapeutic study in OVX rats (micro-CT); type: in vivo, rat; parameters: Tb.N: unit not given beside the values; conditions: for BV/TV / Tb.N / Tb.Sp / Tb.Th: individual animals; for BV/TV of OVX rats: oral 10 mg/kg/day, 12 weeks, in words
Experimental: Female SD rats or C57BL/6 mice were cared until they grown up to 6 months old or 10 weeks old, respectively. Then we subjected them to either bilateral ovariectomy or sham operation after anesthesia with 10% chloral hydrate (0.3 mL/100 g). Then all the rats or mice were intramuscular injected of penicillin to prevent infection in the first week of surgery. For rat experiments, after 12 weeks of operation, 3 rats from sham-operated or ovariectomized groups were random selected to determine bone mass by micro-CT imaging biopsy to verify successful produced bone loss(data unshown). Then the OVX rats were individually administrated with S3-15, S3, and S3-05 orally with (10 mg/kg/day) for another 12 weeks. For mouse experiments, after 4 weeks of surgery, the OVX mice were treated with 10 mg/kg/day S3-15 for another 4 weeks.
The weight of rats or mice were recorded every week in the treatment period. After treatment, the rats were harvested, the serum, heart, liver, spleen, lung, kidney, thymus, and femurs were all collected and subjected to subsequent analysis. The right femurs of rats or mice were cleaned excess soft tissue, fixed in 10% formalin, and processed them for microcomputed tomography (micro-CT) analysis. Left mice femurs were collected and excarnate for biomechanical strength testing. Mice peripheral blood were as well as collected for flow cytometry analyzing.
The right femurs of rats or mice were further analyzed with micro-CT on Inveon PET/CT (Siemens, Germany). We used micro-CT to scan the femur from the femoral head to the femoral condyle, using 19 μm resolution, 80 kV 500uA, 360 projection, 3000-6000 image threshold, full rotation cone beam. Three-dimensional reconstruction and histomorphometric analyses of trabecular bone were conducted with the IAW (Inveon analysis workstation) analysis software. The trabecular extended 1 mm (rat) or 0.5 mm (mice) proximally to the end of the distal growth plate over 2 mm (rats) or 1 mm (mice) toward the diaphysis was selected as the region of interest (ROI) for the analysis. The resulting two-dimensional images of trabecular bone in relative cross sections were shown in grayscale. Trabecular bone parameters were measured including bone volume/tissue volume (BV/TV), bone surface area/bone volume (BS/BV), trabecular number (Tb.N), trabecular thickness (Tb.Th), trabecular separation(Tb.Sp) and trabecular pattern factor(Tb.P.F).

sRANKL = target: T2, sRANKL (Rattus norvegicus, UniProt Q9ESE2, D175N); assay: Isothermal titration calorimetry (ITC) with sRANKL; type: binding; conditions: for pKd: 25 °C, PBS 0.8% DMSO
T2 construct: (1) sRANKL (rat 159-318 aa); His6-sumo (N, cleaved yes); made in house; host or cells: Escherichia coli BL21 (DE3)
T2 sequence (Q9ESE2 159-318 D175N): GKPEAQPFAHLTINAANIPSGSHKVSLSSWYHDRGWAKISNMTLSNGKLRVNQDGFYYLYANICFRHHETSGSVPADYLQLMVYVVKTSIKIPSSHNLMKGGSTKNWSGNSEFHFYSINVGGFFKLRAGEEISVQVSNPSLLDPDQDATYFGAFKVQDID
Experimental: ITC titrations were performed on the MicroCal iTC200 system at 25 °C[55]. Working stocks of compound S3-15 were prepared in 100% DMSO at 50 mM and then diluted to 500 μM at PBS with final DMSO concentration at 0.8% (v/v). PBS with 0.8% DMSO was used as ITC buffer. Purified sRANKL or L-RANKL protein was buffer exchanged into same ITC buffer using a Millipore spin column. S3-15 at 500 μM was loaded into a syringe and protein was loaded into an isothermal calorimeter cell. During titration, S3-15 in the […] was injected (2 μL per injection, 25 injections in total, and 180 s between each injection) regularly from a rotating syringe into protein solution in the isothermal calorimeter cell. The sample cell was stirred at 385 rpm. Reference cell power was set to 5 μcal/s. Control experiments were conducted under the same conditions using buffer solution instead of S3-15. Data were analyzed using a one-site binding model in Origin 7.1 software for ITC version 7.0 (MicroCal). The dissociation constant, KD, was calculated according to equation KD = 1/K. All other parameters, K ([…]), N (varying the stoichiometry), ΔH (enthalpy of the reaction), and ΔG ([…] of the reaction) were determined from the titration data.

[2] = OVX rats, S3-15 oral 10 mg/kg/day 12 weeks, 10 mg/kg/day

SMILES: CCOC(=O)c1sc(NC(=O)/C(=N/Nc2ccccc2C(=O)O)C(C)=O)nc1C [S3, (E)-2-(2-(1-((5-(ethoxycarbonyl)-4-methylthiazol-2-yl)amino)-1,3-dioxobutan-2-ylidene) hydrazinyl) benzoic acid]
- effect on trimerization of sRANKL (sRANKL trimerization): cannot affect
- plasma concentration-time (fig. S2c) ([1]; time 28 h): 0.7405 and 0.07032 and 0.1222
- plasma concentration-time (fig. S2c) ([1]; time 36 h): 0.6382 and 0.07762 and 0.02166
- BV/TV (OVX rats; OVX + compound): 0.3479 and 0.4471 and 0.777 and 0.287 and 0.2327 and 0.4826 and 0.4913
- Tb.N (OVX rats; OVX + compound): 0.07107 and 0.08431 and 0.1472 and 0.07083 and 0.06968 and 0.09727 and 0.1011
- Tb.Sp (OVX rats; OVX + compound): 0.1332 and 0.1043 (2×) and 0.04227 and 0.1759 and 0.2298 and 0.1047
- Tb.Th (OVX rats; OVX + compound): 4.895 and 5.303 and 5.277 and 4.053 and 3.339 and 4.961 and 4.861
- BV/TV of OVX rats (OVX rats): increased

SMILES: CCOC(=O)c1sc(NC(=O)/C(=N/Nc2ccc(O)cc2C(=O)O)C(C)=O)nc1C [S3-05]
- plasma concentration-time (fig. S2c) ([1]; time 28 h): 0.0028 and 0.0125 and 0.0083
- plasma concentration-time (fig. S2c) ([1]; time 36 h): 0.0011 and 0.0231 and 0.0066
- pKd (sRANKL): 5.18
- BV/TV (OVX rats; OVX + compound): 0.3016 and 0.3941 and 0.3094 and 0.3401 and 0.3769 and 0.3486 and 0.3669 and 0.2495
- Tb.N (OVX rats; OVX + compound): 0.07827 and 0.1011 and 0.07596 and 0.08201 and 0.08333 and 0.08879 and 0.08221 and 0.07582
- Tb.Sp (OVX rats; OVX + compound): 0.1812 and 0.1554 and 0.1695 and 0.1592 and 0.1377 and 0.1659 and 0.1419 and 0.2281
- Tb.Th (OVX rats; OVX + compound): 3.854 and 3.899 and 4.073 and 4.146 and 4.523 and 3.9259 and 4.463 and 3.291
- BV/TV of OVX rats (OVX rats): increased

SMILES: CC(=O)/C(=N\Nc1ccccc1C(=O)O)C(=O)Nc1ccccn1 [S3-15]
- effect on trimerization of sRANKL (sRANKL trimerization): cannot affect the trimerization of sRANKL
- pKd (sRANKL): 5.24
- SI (sRANKL over binary-RANKL) (sRANKL; ratio of ITC KD): 21
- BV/TV (OVX rats; OVX rats, S3-15 oral 10 mg/kg/day 12 weeks, distal femur, 10 mg/kg/day): 0.6788 and 0.422 and 0.4058 and 0.5401 and 0.3909 and 0.3235 and 0.4349 and 0.3705 and 0.4806
- Tb.N (OVX rats; [2]): 6.402 1/mm and 4.855 1/mm and 5.594 1/mm and 4.923 1/mm and 3.924 1/mm and 4.525 1/mm and 4.231 1/mm and 4.365 1/mm and 4.683 1/mm
- Tb.Sp (OVX rats; [2]): 0.05016 mm and 0.1191 mm and 0.1062 mm and 0.09343 mm and 0.1553 mm and 0.1495 mm and 0.1335 mm and 0.1442 mm and 0.1109 mm
- Tb.Th (OVX rats; [2]): 0.05016 mm and 0.1191 mm and 0.1062 mm and 0.09343 mm and 0.1553 mm and 0.1495 mm and 0.1335 mm and 0.1442 mm and 0.1109 mm
- BV/TV of OVX rats (OVX rats): increased
